In data set [1] the target is T1, PARP2 (Homo sapiens, UniProt Q9UGN5).
T1 construct: purchased BPS Bioscience (San Diego, CA)
Also noted: method as in PMID 34482781. To be noted: values greater than 1.0 indicate selectivity towards PARP2; cited from earlier work.

For data set [2], the target named is T1, PARP2. Description: PARP2 colorimetric activity assay kit (BPS Bioscience). Format: biochemical. To be noted: for IC50: dose-response, mean ± SD, n = 3; for SI (selectivity index) IC50(PARP1)/IC50(PARP2): values greater than 1.0 indicate selectivity towards PARP2.
For data set [3], the target named is T2, PARP1 (Homo sapiens, UniProt P09874).
T2 construct: purchased BPS Bioscience (San Diego, CA)
T2 sequence (P09874 whole entry): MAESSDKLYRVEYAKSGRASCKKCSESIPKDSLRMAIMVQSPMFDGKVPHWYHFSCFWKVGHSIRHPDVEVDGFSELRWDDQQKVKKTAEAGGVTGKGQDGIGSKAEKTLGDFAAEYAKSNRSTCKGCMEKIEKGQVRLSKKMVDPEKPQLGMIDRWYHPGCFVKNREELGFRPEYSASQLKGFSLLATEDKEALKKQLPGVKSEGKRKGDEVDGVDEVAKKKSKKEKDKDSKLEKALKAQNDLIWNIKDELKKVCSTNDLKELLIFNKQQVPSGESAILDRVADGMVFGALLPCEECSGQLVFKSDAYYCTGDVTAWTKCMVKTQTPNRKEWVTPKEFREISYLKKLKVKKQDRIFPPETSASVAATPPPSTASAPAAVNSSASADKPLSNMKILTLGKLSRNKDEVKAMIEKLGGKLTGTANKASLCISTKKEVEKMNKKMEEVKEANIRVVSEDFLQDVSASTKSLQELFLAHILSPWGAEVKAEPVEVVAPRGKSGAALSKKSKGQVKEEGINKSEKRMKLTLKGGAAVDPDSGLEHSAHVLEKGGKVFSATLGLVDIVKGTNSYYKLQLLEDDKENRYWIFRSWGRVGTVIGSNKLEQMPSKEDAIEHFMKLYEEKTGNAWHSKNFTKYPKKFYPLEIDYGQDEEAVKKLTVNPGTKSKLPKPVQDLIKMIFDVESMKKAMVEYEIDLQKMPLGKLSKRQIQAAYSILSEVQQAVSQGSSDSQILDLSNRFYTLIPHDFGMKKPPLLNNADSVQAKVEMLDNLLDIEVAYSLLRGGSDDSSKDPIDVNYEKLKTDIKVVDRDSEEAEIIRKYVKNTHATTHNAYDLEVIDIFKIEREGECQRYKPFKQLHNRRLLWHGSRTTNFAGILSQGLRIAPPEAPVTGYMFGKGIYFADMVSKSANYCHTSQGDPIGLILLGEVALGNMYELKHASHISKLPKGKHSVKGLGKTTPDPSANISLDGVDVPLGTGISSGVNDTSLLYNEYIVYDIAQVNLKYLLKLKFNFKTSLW
The data set is described as follows: PARP1 colorimetric activity assay kit (BPS Bioscience). Format: biochemical. The settings on record: dose-response, mean ± SD, n = 3.

Data set [4] addresses T2, PARP1. Described as above. The data set is classed as biochemical. To be noted: 1 µM concentration of the inhibitor, mean ± SD, n = 3. How it is done:
The initial screening was performed against PARP1 at 1 µM concentration of each compound, in triplicate (n = 3) measurements.

The nature of data set [5]: Solubility in pH 7.4 phosphate buffer. The settings on record: aqueous buffer; pH 7.4 0.01 M phosphate buffer solution. Format: physicochemical.
Data set [6] in a line: Stability in the presence of hepatic S9 fraction. The data set is classed as in vitro ADME.
Data set [7] is described as follows: Stability in the presence of human liver microsomes. Format: in vitro ADME. (Microsomes from liver hold many membrane-bound enzymes, among them those of drug oxidation.)
The nature of data set [8]: Stability in human plasma. To be noted: after incubation (4 h) with human plasma. The data set is classed as in vitro ADME.
The nature of the next data set: Plasma protein binding. Format: in vitro ADME.

Each structure is given as a SMILES string. Where two headings read alike, the source gives them in different places.

T1 sequence (Q9UGN5 whole entry): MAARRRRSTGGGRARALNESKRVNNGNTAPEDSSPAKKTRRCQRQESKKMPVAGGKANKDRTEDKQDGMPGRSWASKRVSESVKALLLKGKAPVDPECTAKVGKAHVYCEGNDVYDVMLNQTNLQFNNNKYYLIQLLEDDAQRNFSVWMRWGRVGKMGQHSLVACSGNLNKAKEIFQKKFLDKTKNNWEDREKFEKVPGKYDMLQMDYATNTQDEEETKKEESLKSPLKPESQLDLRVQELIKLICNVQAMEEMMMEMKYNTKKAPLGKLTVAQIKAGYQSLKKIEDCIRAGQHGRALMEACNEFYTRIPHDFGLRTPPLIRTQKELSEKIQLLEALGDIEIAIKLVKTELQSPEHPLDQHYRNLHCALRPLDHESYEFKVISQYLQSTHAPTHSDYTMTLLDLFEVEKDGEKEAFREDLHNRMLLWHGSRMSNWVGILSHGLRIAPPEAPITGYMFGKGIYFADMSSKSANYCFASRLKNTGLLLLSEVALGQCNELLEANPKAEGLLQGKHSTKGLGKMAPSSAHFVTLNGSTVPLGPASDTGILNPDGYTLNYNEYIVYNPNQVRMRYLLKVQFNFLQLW

Regarding `O=C1NCC(C(=O)N2CCC(N3CCCCC3)CC2)c2ccccc21` (stereo not shown) [Compound 1a], the “SI (selectivity index) IC50(PARP1)/IC50(PARP2)” value at PARP2 [1] is recorded as 2.23.

As to `O=C1N[C@H](c2ccccc2)[C@@H](C(=O)N2CCC(N3CCCCC3)CC2)c2ccccc21` [Compound 2a], at PARP2 [2], the IC50 (as a rule, the concentration at which inhibition is half-maximal) came to 0.0695 ± 0.0128 µM and the “SI (selectivity index) IC50(PARP1)/IC50(PARP2)” value amounted to 1.26. Moreover, half-maximal inhibition against PARP1 [3] (IC50) required 0.0879 ± 0.0102 µM.

As to `O=C1N[C@H](c2ccc(F)cc2)[C@@H](C(=O)N2CCC(N3CCCCC3)CC2)c2ccccc21` [Compound 2b], the IC50 amounted to 0.0399 ± 0.0073 µM at PARP2 [2] and 0.0554 ± 0.0088 µM against PARP1 [3]. On PARP2 [2], the “SI (selectivity index) IC50(PARP1)/IC50(PARP2)” value is reported as 1.39.

For `CC[C@H]1NC(=O)c2ccccc2[C@@H]1C(=O)N1CCC(N2CCCCC2)CC1` [Compound 2c], at PARP2 [2], the midpoint of inhibition, the IC50, lay at 0.011 ± 0.0022 µM and the “SI (selectivity index) IC50(PARP1)/IC50(PARP2)” value was found to be 4.05. The IC50 against PARP1 [3] was 0.0446 ± 0.0056 µM.

For the molecule `CC(C)[C@H]1NC(=O)c2ccccc2[C@@H]1C(=O)N1CCC(N2CCCCC2)CC1` [Compound 2d], the IC50 on PARP1 [3] amounted to 0.16 ± 0.0186 µM.

In the case of `O=C1N[C@H](C2CC2)[C@@H](C(=O)N2CCC(N3CCCCC3)CC2)c2ccccc21` [Compound 2e], at PARP2 [2], the IC50 turned out to be 0.0183 ± 0.0045 µM and the “SI (selectivity index) IC50(PARP1)/IC50(PARP2)” value is on record as 1.44. This molecule also displayed an IC50 on PARP1 [3] of 0.0264 ± 0.0041 µM.

As to `CC(C)(C)[C@H]1NC(=O)c2ccccc2[C@@H]1C(=O)N1CCC(N2CCCCC2)CC1` [Compound 2f], testing at 1 µM against PARP1 [4] gave an inhibition of 24.1 ± 6%.

In the case of `CC(C)C[C@H]1NC(=O)c2ccccc2[C@@H]1C(=O)N1CCC(N2CCCCC2)CC1` [Compound 2g], at PARP2 [2], the midpoint of inhibition, the IC50, lay at 0.105 ± 0.0208 µM and the “SI (selectivity index) IC50(PARP1)/IC50(PARP2)” value is reported as 0.83. Further, the IC50 against PARP1 [3] was 0.087 ± 0.0083 µM.

Consider `CC1(C)NC(=O)c2ccccc2[C@@H]1C(=O)N1CCC(N2CCCCC2)CC1` [Compound 2h], for which the inhibition (commonly the change of the read-out against control, counted positive when it falls) at 1 µM against PARP1 [4] was determined as 4 ± 7.4%.

The molecule `O=C1NC2(CCCCC2)[C@@H](C(=O)N2CCC(N3CCCCC3)CC2)c2ccccc21` [Compound 2i] displayed an inhibition at 1 µM on PARP1 [4] of 12.1 ± 7.2%.

On PARP1 [4], `O=C1NC2(CCOCC2)[C@@H](C(=O)N2CCC(N3CCCCC3)CC2)c2ccccc21` [Compound 2j] gave an inhibition at 1 µM of 5.1 ± 6.6%.

For the molecule `O=C1NC2(CCCC2)[C@@H](C(=O)N2CCC(N3CCCCC3)CC2)c2ccccc21` [Compound 2k], on PARP1 [4], at 1 µM the inhibition was 10.6 ± 9.7%.

With `O=C1N[C@H](C2CCCC2)[C@@H](C(=O)N2CCC(N3CCCCC3)CC2)c2ccccc21` [Compound 2l], the IC50 at PARP2 [2] and at PARP1 [3] was more than 0.5 µM throughout.

On to `C[C@H]1NC(=O)c2ccccc2[C@@H]1C(=O)N1CCC(N2CCCCC2)CC1` [Compound 2m], for which, at PARP2 [2], the IC50 is 0.0292 ± 0.0034 µM and the “SI (selectivity index) IC50(PARP1)/IC50(PARP2)” value came to 3.28. The same molecule had an IC50 against PARP1 [3] of 0.0957 ± 0.0177 µM.

On to `O=C1NC(C2CC2)C(C(=O)N2CCC(N3CCCCC3)CC2)c2ccc(F)cc21` (stereo not shown) [Compound 6, 4-([1,4′-bipiperidine]-1′-carbonyl)-3-cyclopropyl-7-fluoro-3,4-dihydroisoquinolin-1(2H)-one], for which, on PARP2 [2], 0.0043 ± 0.0005 µM corresponded to half-maximal inhibition (IC50) and the “SI (selectivity index) IC50(PARP1)/IC50(PARP2)” value was found to be 5.1. Also, in data set [5], the solubility (in general, the concentration that dissolves in the medium under given conditions) is more than 100 µM. Moreover, the “Stability S9” value in [6] is given as 0.1 µL/min/mg. Further, in data set [7], the “Stability HLM” value was 3.8 µL/min/mg. For the same molecule, the “Stability Plasma (% compound remaining)” value in data set [8] is recorded as 100%. In “Plasma protein binding”, the “PPB (plasma protein binding)” value turned out to be 71.0 % bound. In addition, the IC50 against PARP1 [3] stood at 0.022 ± 0.0032 µM.

Consider `O=C(c1cc(Cc2n[nH]c(=O)c3ccccc23)ccc1F)N1CCN(C(=O)C2CC2)CC1` [Olaparib, reference compound], for which the solubility in data set [5] is more than 100 µM. Besides, the “Stability S9” value in [6] worked out at 1.1 µL/min/mg. In [7], the “Stability HLM” value is 15 µL/min/mg. The “Stability Plasma (% compound remaining)” value in data set [8] amounted to 100%. Also, in “Plasma protein binding”, the “PPB (plasma protein binding)” value worked out at 90.2 % bound.

The values above are taken from PMC8409965, “Three-component Castagnoli-Cushman reaction with ammonium acetate delivers 2-unsubstituted isoquinol-1-ones as potent inhibitors of poly(ADP-ribose) polymerase (PARP)” (Journal of Enzyme Inhibition and Medicinal Chemistry, 2021).
